Laboratory results published in PubChem BioAssay (NCI).
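The compound was tested at five concentrations on cells cultured in 96-well plates, with a 48-hour exposure period. GI50: concentration for 50% inhibition of growth. At the TGI there is no net growth.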

Key:
Assay in all cases: NCI tumour cell line growth inhibition, 48 h
[1] = system: COLO 205 colon
[2] = system: UACC-257 melanoma
[3] = system: SK-MEL-28 melanoma
[4] = system: SK-MEL-2 melanoma
[5] = system: SK-MEL-5 melanoma
[6] = system: OVCAR-3 ovarian
[7] = system: OVCAR-8 ovarian
[8] = system: TK-10 renal
[9] = system: SW-620 colon
[10] = system: T-47D breast
[11] = system: MDA-MB-435
[12] = system: ACHN renal
[13] = system: CCRF-CEM leukemia
[14] = system: HCC-2998 colon
[15] = system: NCI-H23 lung
[16] = system: A498 renal
[17] = system: SK-OV-3 ovarian
[18] = system: NCI-H226 lung
[19] = system: NCI-H460 lung
[20] = system: OVCAR-4 ovarian
[21] = system: HT29 colon
[22] = system: K-562 leukemia
[23] = system: SF-295 CNS
[24] = system: HCT-15 colon
[25] = system: SF-268 CNS
[26] = system: MCF7 breast
[27] = system: MALME-3M melanoma
[28] = system: CAKI-1 renal
[29] = system: SF-539 CNS
[30] = system: NCI-H522 lung
[31] = system: U251 CNS
[32] = system: NCI/ADR-RES ovarian
[33] = system: HOP-62 NSCLC
[34] = system: SN12C renal
[35] = system: DU-145 prostate
[36] = system: RPMI-8226 leukemia
[37] = system: BT-549 breast
[38] = system: M14 melanoma
[39] = system: HL-60(TB) leukemia
[40] = system: RXF 393 renal
[41] = system: A549 NSCLC
[42] = system: HCT-116 colon
[43] = system: SR leukemia
[44] = system: PC-3 prostate
[45] = system: OVCAR-5 ovarian
[46] = system: HS 578T breast
[47] = system: UACC-62 melanoma
[48] = system: UO-31 renal
[49] = system: IGROV1 ovarian
[50] = system: SNB-19 CNS
[51] = system: HOP-92 NSCLC
[52] = system: MDA-MB-231 breast
[53] = system: LOX IMVI melanoma
[54] = system: MDA-MB-468 breast
[55] = system: 786-0 renal
[56] = system: EKVX NSCLC

COc1cc(/C=C/C(=O)c2ccc(S(=O)(=O)NCCNc3nc(Nc4ccc(F)cc4)nc(N(C)C)n3)cc2)cc(OC)c1OC
GI50 [1]: 4.78 µM
TGI [1]: 19.2 µM
GI50 [2]: 15.1 µM
TGI [2]: 31.4 µM
GI50 [3]: 6.13 µM
TGI [3]: 19.3 µM
GI50 [4]: 13.5 µM
TGI [4]: 28.3 µM
GI50 [5]: 3.39 µM
TGI [5]: 12.8 µM
GI50 [6]: 6.18 µM
TGI [6]: 26.4 µM
GI50 [7]: 11.1 µM
TGI [7]: 34.7 µM
GI50 [8]: 13.1 µM
TGI [8]: 40.9 µM
GI50 [9]: 1.95 µM
TGI [9]: 3.8 µM
GI50 [10]: 3.48 µM
TGI [10]: 51.3 µM
GI50 [11]: 2.8 µM
TGI [11]: 7.68 µM
GI50 [12]: 5.13 µM
TGI [12]: 19.8 µM
GI50 [13]: 3.62 µM
TGI [13]: > 100 µM
GI50 [14]: 1.62 µM
TGI [14]: 3 µM
GI50 [15]: 3.03 µM
TGI [15]: 10.9 µM
GI50 [16]: 11.3 µM
TGI [16]: 23.8 µM
GI50 [17]: 21.8 µM
TGI [17]: 58.9 µM
GI50 [18]: 4.47 µM
TGI [18]: 31.9 µM
GI50 [19]: 5.12 µM
TGI [19]: 17.8 µM
GI50 [20]: 8.02 µM
TGI [20]: 63.4 µM
GI50 [21]: 1.93 µM
TGI [21]: 3.53 µM
GI50 [22]: 2.73 µM
TGI [22]: > 100 µM
GI50 [23]: 2.16 µM
TGI [23]: 4.73 µM
GI50 [24]: 1.8 µM
TGI [24]: 3.44 µM
GI50 [25]: 11.7 µM
TGI [25]: 63.7 µM
GI50 [26]: 1.96 µM
TGI [26]: 4.28 µM
GI50 [27]: 11.9 µM
TGI [27]: 25.7 µM
GI50 [28]: 5.2 µM
TGI [28]: 35.6 µM
GI50 [29]: 1.71 µM
TGI [29]: 3.18 µM
GI50 [30]: 6.45 µM
TGI [30]: 20.1 µM
GI50 [31]: 1.81 µM
TGI [31]: 3.54 µM
GI50 [32]: 3.38 µM
TGI [32]: 13.4 µM
GI50 [33]: 14.1 µM
TGI [33]: 29 µM
GI50 [34]: 5.71 µM
TGI [34]: 21.5 µM
GI50 [35]: 10.9 µM
TGI [35]: 34.3 µM
GI50 [36]: 2.5 µM
TGI [36]: 7.69 µM
GI50 [37]: 2.25 µM
TGI [37]: 7.52 µM
GI50 [38]: 3.28 µM
TGI [38]: 11.5 µM
GI50 [39]: 2.64 µM
TGI [39]: 9.4 µM
GI50 [40]: 1.45 µM
TGI [40]: 3.12 µM
GI50 [41]: 12.2 µM
TGI [41]: 30.9 µM
GI50 [42]: 1.77 µM
TGI [42]: 3.68 µM
GI50 [43]: 2.42 µM
TGI [43]: 7.6 µM
GI50 [44]: 3.22 µM
TGI [44]: 30.7 µM
GI50 [45]: 12.9 µM
TGI [45]: 26.8 µM
GI50 [46]: 8.24 µM
TGI [46]: 46.7 µM
GI50 [47]: 8.28 µM
TGI [47]: 21.4 µM
GI50 [48]: 4.45 µM
TGI [48]: 17 µM
GI50 [49]: 16.1 µM
TGI [49]: 31 µM
GI50 [50]: 11.2 µM
TGI [50]: 23.4 µM
GI50 [51]: 11.5 µM
TGI [51]: 37.7 µM
GI50 [52]: 4.41 µM
TGI [52]: 21 µM
GI50 [53]: 1.71 µM
TGI [53]: 3.1 µM
GI50 [54]: 2 µM
TGI [54]: 4.58 µM
GI50 [55]: 2.94 µM
TGI [55]: 12 µM
GI50 [56]: 4.85 µM
TGI [56]: 16.3 µM
